Test results reported in US7037905B2, “Pharmaceutical use of boronic acids and esters thereof” (Novo Nordisk A/S, priority 2002, dated 2006).
Read-outs that look alike come from different tables or passages of the source.

Molecular target: T1, HSL (Homo sapiens, UniProt Q05469)
T1 sequence (Q05469 1-1076): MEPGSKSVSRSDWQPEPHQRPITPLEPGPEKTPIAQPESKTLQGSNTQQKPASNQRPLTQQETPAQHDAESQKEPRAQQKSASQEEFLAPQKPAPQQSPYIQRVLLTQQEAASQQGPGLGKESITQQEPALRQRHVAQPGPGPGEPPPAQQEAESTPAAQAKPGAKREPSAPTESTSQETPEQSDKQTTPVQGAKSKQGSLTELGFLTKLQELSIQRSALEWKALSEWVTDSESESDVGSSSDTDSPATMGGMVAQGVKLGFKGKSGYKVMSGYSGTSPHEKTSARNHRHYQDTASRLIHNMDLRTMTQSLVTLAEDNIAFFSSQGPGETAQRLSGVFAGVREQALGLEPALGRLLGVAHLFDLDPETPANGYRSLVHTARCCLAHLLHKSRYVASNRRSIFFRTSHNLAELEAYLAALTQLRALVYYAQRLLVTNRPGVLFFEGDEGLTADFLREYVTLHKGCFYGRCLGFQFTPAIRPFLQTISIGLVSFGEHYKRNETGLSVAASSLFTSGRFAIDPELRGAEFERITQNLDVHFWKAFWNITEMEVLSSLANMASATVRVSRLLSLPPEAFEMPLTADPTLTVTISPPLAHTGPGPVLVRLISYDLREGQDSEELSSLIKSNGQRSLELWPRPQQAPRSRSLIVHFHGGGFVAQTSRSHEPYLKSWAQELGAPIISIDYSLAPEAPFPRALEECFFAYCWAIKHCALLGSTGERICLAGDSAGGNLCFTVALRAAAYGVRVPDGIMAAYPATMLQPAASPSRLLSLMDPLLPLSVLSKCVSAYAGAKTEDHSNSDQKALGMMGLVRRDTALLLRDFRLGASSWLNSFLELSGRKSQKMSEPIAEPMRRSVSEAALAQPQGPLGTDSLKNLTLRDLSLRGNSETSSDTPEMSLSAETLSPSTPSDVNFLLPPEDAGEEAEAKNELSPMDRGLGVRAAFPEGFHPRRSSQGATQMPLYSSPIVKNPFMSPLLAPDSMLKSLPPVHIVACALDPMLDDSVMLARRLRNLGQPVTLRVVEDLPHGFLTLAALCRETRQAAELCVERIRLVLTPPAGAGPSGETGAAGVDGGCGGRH
Test: TEST 3180.2 HSL: percent inhibition at 10 μM, 3H-Triolein lipid emulsion
Format: biochemical
Conditions: for activity at 10 µM: read-out: TEST 3180.2 HSL Activity (%)

[1] = 10 μM concentration, percent activity relative to an un-inhibited sample, 30 min preincubation, 30 min reaction at 25° C.

activity at 10 µM [1] [%] | Molecule | other results
90 | CCOc1cccc(B(O)O)c1 [Example 45, 3-Ethoxyphenylboronic acid] | 
88 | OB(O)c1c(Cl)cccc1Cl [Example 50, 2,6-Dichlorophenylboronic acid] | 
83 | CC1(C)COB(c2ccc(Br)cc2)OC1 [Example 37, 2-(4-BROMOPHENYL)-5,5-DIMETHYL-1,3,2-DIOXABORINANE] | 
 | CC1(C)OB(c2csc([N+](=O)[O-])c2)OC1(C)C [Example 82, 4′-(4,4,5,5-TETRAMETHYL-1,3,2-DIOXABOROLAN-2-YL)2-nitrothiophene] | TEST 3180.2 HSL Activity (%) [1]: 96%
89 | c1ccc2c(c1)OB(c1ccsc1)O2 [Example 85, 2-THIEN-3-YL-1,3,2-BENZODIOXABOROLE] | 
81 | OB(O)c1ccccc1Br [Example 48, 2-Bromophenylboronic acid] | 
71 | OB(O)c1cc(Br)cc(Br)c1 [Example 44, 3,5-Dibromophenylboronic acid] | 
84 | OB(O)c1sccc1Br [Example 98, 3-Bromothiophene-2-boronic acid] | 
64 | Cc1cccc(B(O)O)c1 [Example 51, 3-Methylphenylboronic acid] | 
53 | OB(O)c1cc2ccccc2s1 [Example 92, Benzo[B]thiophene-2-boronic acid] | 
66 | OB(O)c1cccs1 [Example 97, Thiophene-2-boronic acid] | 
45 | OB(O)c1ccc(F)c(F)c1 [Example 69, 3,4-Difluorophenylboronic acid] | 
 | Cc1cc(B2OCCCO2)sc1C=O [Example 87, 2-(2-FORMYL-3-METHYLTHIEN-5-YL)-1,3,2-DIOXABORINANE] | activity at 10 µM: 75%
21 | OB(O)c1cccc(C(F)(F)F)c1 [Example 55, 3-Trifluoromethylphenylboronic acid] | 
46 | OB(O)c1cc(Cl)cc(Cl)c1 [Example 57, 3,5-Dichlorophenylboronic acid] | 
93 | CCOC(=O)c1ccccc1B1OCC(C)(C)CO1 [Example 42, 2-(5,5-Dimethyl-[1,3,2]dioxaborinan-2-yl)-benzoic acid ethyl ester] | 
80 | Ic1cccc(OCC2COB(c3ccccc3)O2)c1 (stereo not shown) [Example 80, 4-(3-Iodo-phenoxymethyl)-2-phenyl-[1,3,2]dioxaborolane] | 
55 | OB(O)c1cc(Cl)ccc1Cl [Example 65, 2,5-Dichlorophenylboronic acid] | 
33 | OB(O)c1cccc(Br)c1 [Example 49, 3-Bromophenylboronic acid] | 
36 | COc1ccc(Cl)cc1B(O)O [Example 43, 5-CHLORO-2-METHOXYPHENYLBORONIC ACID] | 
76 | OB(O)c1cc(Cl)cc(Cl)c1Cl [Example 64, 2,3,5-Trichlorophenylboronic acid] | 
85 | CCCCCc1ccc(B(O)O)c(F)c1F [Example 61, 2,3-DIFLUORO-4-PENTYLPHENYLBORONIC ACID] | 
55 | OB(O)c1cccc(F)c1F [Example 66, 2,3-Difluorophenylboronic acid] | 
89 | OB(O)c1cc(C(F)(F)F)cc(C(F)(F)F)c1 [Example 56, 3,5-Bis(Trifluoromethyl)phenylboronic acid] | 
35 | OB(O)c1ccc(F)c(Cl)c1 [Example 58, 3-Chloro-4-fluorophenylboronic acid] | 
27 | OB(O)c1cccc(OC(F)(F)F)c1 [Example 54, 3-(TRIFLUOROMETHOXY)BENZENEBORONIC ACID] | 

activity at 10 µM [1] [%] | Molecule | other results
34 | OB(O)c1cccc(Cl)c1 [Example 53, 3-Chlorophenylboronic acid] | 
 | OB(O)c1ccc(OCc2ccccc2)c(F)c1 [Example 62, 3-FLUORO-4-BENZYLOXYPHENYL)BORONIC ACID] | TEST 3180.2 HSL Activity (%) [1]: 93%
66 | OB(O)c1cccc(Cl)c1Cl [Example 70, 2,3-Dichlorophenylboronic acid] | 
 | COC1OC2COB(c3ccccc3)OC2C(O)C1O (stereo not shown) [Example 78, 6-Methoxy-2-phenyl-hexahydro-pyrano[3,2-a][1,3,2]dioxaborinine-7,8-diol] | TEST 3180.2 HSL Activity (%) [1]: 82%
47 | OB(O)c1cccc(F)c1 [Example 60, 3-Fluorophenylboronic acid] | 
96 | OB(O)c1cccc(-c2ccccc2)c1 [Example 46, 3-phenylphenylboronic acid] | 
49 | Cc1csc(B(O)O)c1 [Example 88, 4-METHYLTHIOPHENE-2-BORONIC ACID] | 
62 | COc1ccc(F)cc1B(O)O [Example 73, 2-Methoxy5-fluorophenylboronic acid] | 
34 | OB(O)c1cc(F)ccc1F [Example 67, 2,5-Difluorophenylboronic acid] | 
48 | Cc1ccc(B(O)O)s1 [Example 90, 5-Methylthiophene-2-boronic acid] | 
49 | N#Cc1ccc(B(O)O)s1 [Example 95, 5-Cyanothiophene-2-boronic acid] | 
100 | CCCCCC1COB(c2ccc(C(=O)O)c(F)c2)OC1 [Example 79, 2-Fluoro-4-(5-pentyl-[1,3,2]dioxaborinan-2-yl)-benzoic acid] | 
 | 3-Fluoro-4-phenylboronic acid [Example 72] | TEST 3180.2 HSL Activity (%) (10 µM): 97%
26 | OB(O)c1cc(F)c(F)c(F)c1 [Example 63, 3,4,5-Trifluorophenylboronic acid] | 
92 | O=Cc1sccc1B(O)O [Example 84, 2-FORMYL-3-THIOPHENEBORONIC ACID] | 
38 | CC1(C)COB(c2cc(F)cc(F)c2)OC1 [Example 35, 2-(3,5-DIFLUOROPHENYL)-5,5-DIMETHYL-1,3,2-DIOXABORINANE] | 
25 | OB(O)c1cc(F)cc(F)c1 [Example 59, 3,5-Difluorophenylboronic acid] | 
87 | Cc1ccc(B(O)O)o1 [Example 89, 5-METHYLFURAN-2-BORONIC ACID] | 
86 | CC(=O)Nc1ccc(B2OC(C)(C)C(C)(C)O2)cc1 [Example 68, 4′-(4,4,5,5-TETRAMETHYL-1,3,2-DIOXABOROLAN-2-YL)ACETANILIDE] | 
89 | OB(O)c1ccco1 [Example 93, Furan-2-boronic acid] | 
17 | OB(O)c1ccc(Cl)s1 [Example 94, 5-Chlorothiophene-2-boronic acid] | 
57 | OB(O)c1cc2ccccc2o1 [Example 91, BENZO[B]FURAN-2-BORONIC ACID] | 
89 | CC1(C)COB(c2ccccc2Cl)OC1 [Example 38, 2-(2-chloroPHENYL)-5,5-DIMETHYL-1,3,2-DIOXABORINANE] | 
61 | OB(O)c1ccc(Br)c(F)c1F [Example 71, 2,3-Difluoro-4-bromophenylboronic acid] | 
86 | OB(O)c1ccccc1Cl [Example 52, 2-Chlorophenylboronic acid] | 
97 | CC1(C)COB(c2ccccc2C#N)OC1 [Example 39, 2-(5,5-Dimethyl-[1,3,2]dioxaborinan-2-yl)-benzonitrile] | 
